Laboratory results published in US20250195513A1, “DEGRADATION OF IRAK4 BY CONJUGATION OF IRAK4 INHIBITORS WITH E3 LIGASE LIGAND AND METHODS OF USE” (BeiGene, Ltd., priority 2022, published 2025).

Key:
Type in all cases: cell-based
[1] = molecular target: T1, IRAK4 (Homo sapiens, UniProt Q9NWZ3); experiment: IRAK4 Degradation Assay (Karpas299, HTRF/TR-FRET); conditions: Karpas-299 cells; for Dmax: maximum percentage of degradation
T1 construct: endogenous in cells; host or cells: Karpas299
T1 sequence (Q9NWZ3 1-460): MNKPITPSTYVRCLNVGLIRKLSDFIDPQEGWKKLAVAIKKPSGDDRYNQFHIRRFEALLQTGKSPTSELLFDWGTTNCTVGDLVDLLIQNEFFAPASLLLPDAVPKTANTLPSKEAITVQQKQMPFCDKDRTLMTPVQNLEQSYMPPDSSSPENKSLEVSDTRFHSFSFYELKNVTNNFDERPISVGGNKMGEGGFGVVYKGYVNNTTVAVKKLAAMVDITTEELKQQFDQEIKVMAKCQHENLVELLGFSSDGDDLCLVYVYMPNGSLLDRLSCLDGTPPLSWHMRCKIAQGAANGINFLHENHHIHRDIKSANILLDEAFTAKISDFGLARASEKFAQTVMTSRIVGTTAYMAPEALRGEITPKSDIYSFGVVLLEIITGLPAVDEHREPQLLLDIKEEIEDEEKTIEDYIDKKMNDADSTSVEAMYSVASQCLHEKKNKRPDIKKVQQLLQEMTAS
Summary of the method: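 Compound potency as DC50 (IC50) came from four-parameter fits of percent IRAK4 degradation. IRAK4 was measured by HTRF (665/620 nm) in lysates of Karpas299 cells seeded at 0.2 million per well. Cells had been treated with compound dilutions for 5 or 24 h.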

[2] = molecular target: T1, IRAK4; experiment: IRAK4 Degradation Assay with Human Serum (Karpas299, HTRF/TR-FRET); conditions: Karpas-299 in human serum, 24 hrs treatment; for DC50: read-out: IRAK4 degradtion with human serum assay DC50; for Dmax: read-out: IRAK4 degradtion with human serum assay Dmax (%)
Summary of the method: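 Remaining IRAK4 measured by TR-FRET immunoassay on lysates of Karpas299 cells exposed 24 h to compound dilution series in human serum AB. DC50 derived from a Hill-slope fit of % degradation versus concentration.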

[3] = tested on: TNF-α production in THP-1 cells; experiment: TNF-α Production Assay in THP-1 Cells (LPS stimulated); conditions: Homo sapiens, THP-1, 24 h; for Emax: maximum inhibition, read-out: TNF-α (THP-1) 24 h IMax
Experimental: THP-1 cells maintained in RPMI 1640 medium (Thermo Scientific) supplemented with 10% FBS (Thermo Scientific), 100 units/mL penicillin and 0.1 mg/mL streptomycin (Thermo Scientific) were seeded into 96-well plates at the density of 0.2 million cells per well and then treated with compounds for 24 h. Lipopolysaccharide was subsequently added at the final concentration of 1 μg/mL for 24 h. Culture supernatant was collected for measurement of TNF-α concentration by a TR-FRET-based method (Degorce, François, et al. Current chemical genomics. 2009, 3: 22) as described by the manufacturer manual (Cisbio). FRET signals were measured using a PHERAstar FSX reader (BMG Labtech).

[4] = 24 h treatment, read-out: IRAK4 in Karpas-299 (24 h) Dmax (%)
[5] = 24 h treatment, read-out: IRAK4 in Karpas-299 (24 h) DC50
[6] = 5 h treatment, read-out: IRAK4 in Karpas-299 (5 h) Dmax (%)
[7] = 5 h treatment, read-out: IRAK4 in Karpas-299 (5 h) DC50

SMILES	Dmax [1, 4]	DC50 [1, 5]	DC50 [2]	Dmax [2]	IC50 [3]	Emax [3]	Dmax [1, 6]	DC50 [1, 7]
COC[C@@H]1CN([C@H]2CC[C@H](n3cc4cc(NC(=O)c5ccc6cc(C#N)cnn56)c(C(C)(C)O)cc4n3)CC2)CCN1C(=O)C1CN(c2cc(F)c([C@H]3CCC(=O)NC3=O)c(F)c2)C1 [Example 186, 3-cyano-N-(2-((1S,4r)-4-((S)-4-(1-(4-((R)-2,6-dioxopiperidin-3-yl)-3,5-difluorophenyl)azetidine-3-carbonyl)-3-(methoxymethyl)piperazin-1-yl)cyclohexyl)-6-(2-hydroxypropan-2-yl)-2H-indazol-5-yl)pyrrolo[1,2-b]pyridazine-7-carboxamide]	99%	0.9 nM	9.2 nM	101%	29 nM	89%	–	–
CC(C)(O)c1cc2nn(C34CC(N5CCN(CC6CN(c7cc(F)c(N8CCC(=O)NC8=O)c(F)c7)C6)CC5)(C3)C4)cc2cc1NC(=O)c1ccc2cc(C#N)cnn12 [Example 354, 3-cyano-N-(2-(3-(4-((1-(4-(2,4-dioxotetrahydropyrimidin-1(2H)-yl)-3,5-difluorophenyl)azetidin-3-yl)methyl)piperazin-1-yl)bicyclo[1.1.1]pentan-1-yl)-6-(2-hydroxypropan-2-yl)-2H-indazol-5-yl)pyrrolo[1,2-b]pyridazine-7-carboxamide]	98%	2.4 nM	10 nM	93%	44 nM	96%	–	–
C[C@@H]1CN(C2CN(c3cc(F)c([C@H]4CCC(=O)NC4=O)c(F)c3)C2)CCN1[C@H]1CC[C@H](n2cc3cc(NC(=O)c4ccc5cc(C#N)cnn45)c(C(C)(C)O)cc3n2)CC1 [Example 302, 3-cyano-N-(2-((1R,4r)-4-((R)-4-(1-(4-((R)-2,6-dioxopiperidin-3-yl)-3,5-difluorophenyl)azetidin-3-yl)-2-methylpiperazin-1-yl)cyclohexyl)-6-(2-hydroxypropan-2-yl)-2H-indazol-5-yl)pyrrolo[1,2-b]pyridazine-7-carboxamide]	98%	0.8 nM	8.8 nM	96%	38 nM	84%	–	–
COc1cc(N2CC(C(=O)N3CCN([C@H]4CC[C@H](n5cc6cc(NC(=O)c7ccc8cc(C#N)cnn78)c7c(c6n5)OCO7)CC4)CC3)C2)ccc1[C@H]1CCC(=O)NC1=O [Example 356]	98%	1.3 nM	14 nM	102%	12 nM	90%	–	–
CC(C)(O)c1cc2nn([C@H]3C[C@H](N4CCN(C5CCN(c6cc(F)c([C@H]7CCC(=O)NC7=O)c(F)c6)CC5)CC4)C3)cc2cc1NC(=O)c1ccc2cc(C#N)cnn12 [Example 330, 3-cyano-N-(2-((1R,3r)-3-(4-(1-(4-((R)-2,6-dioxopiperidin-3-yl)-3,5-difluorophenyl)piperidin-4-yl)piperazin-1-yl)cyclobutyl)-6-(2-hydroxypropan-2-yl)-2H-indazol-5-yl)pyrrolo[1,2-b]pyridazine-7-carboxamide]	96%	0.6 nM	10 nM	98%	19 nM	89%	–	–
CC(C)(O)c1cc2nn([C@H]3CC[C@H](N4CCN(CCNc5cc(F)c([C@H]6CCC(=O)NC6=O)c(F)c5)CC4)CC3)cc2cc1NC(=O)c1ccc2cc(C#N)cnn12 [Example 194, 3-cyano-N-(2-((1R,4r)-4-(4-(2-((4-((R)-2,6-dioxopiperidin-3-yl)-3,5-difluorophenyl)amino)ethyl)piperazin-1-yl)cyclohexyl)-6-(2-hydroxypropan-2-yl)-2H-indazol-5-yl)pyrrolo[1,2-b]pyridazine-7-carboxamide]	98%	1.1 nM	6.2 nM	96%	30 nM	53%	93%	1.6 nM
CC(C)(O)c1cc2nn([C@H]3CC[C@H](N4CCN(C(=O)CNc5cc(F)c([C@H]6CCC(=O)NC6=O)c(F)c5)CC4)CC3)cc2cc1NC(=O)c1ccc2cc(C#N)cnn12 [Example 193, 3-cyano-N-(2-((1R,4r)-4-(4-((4-((R)-2,6-dioxopiperidin-3-yl)-3,5-difluorophenyl)glycyl)piperazin-1-yl)cyclohexyl)-6-(2-hydroxypropan-2-yl)-2H-indazol-5-yl)pyrrolo[1,2-b]pyridazine-7-carboxamide]	97%	0.4 nM	5.8 nM	102%	20 nM	58%	–	–
CC(C)(O)c1cc2nn([C@H]3CC[C@H](N4CCN(C(=O)[C@@H]5CCN(c6cc(F)c([C@H]7CCC(=O)NC7=O)c(F)c6)C5)CC4)CC3)cc2cc1NC(=O)c1ccc2cc(C#N)cnn12 [Example 181, 3-cyano-N-(2-((1R,4r)-4-(4-((R)-1-(4-((R)-2,6-dioxopiperidin-3-yl)-3,5-difluorophenyl)pyrrolidine-3-carbonyl)piperazin-1-yl)cyclohexyl)-6-(2-hydroxypropan-2-yl)-2H-indazol-5-yl)pyrrolo[1,2-b]pyridazine-7-carboxamide]	97%	0.4 nM	11 nM	101%	30 nM	69%	97%	2 nM
COC[C@H]1CN([C@H]2CC[C@H](n3cc4cc(NC(=O)c5ccc6cc(C#N)cnn56)c(C(C)(C)O)cc4n3)CC2)CCN1C(=O)C1CN(c2cc(F)c([C@H]3CCC(=O)NC3=O)c(F)c2)C1 [Example 185, 3-cyano-N-(2-((1R,4r)-4-((R)-4-(1-(4-((R)-2,6-dioxopiperidin-3-yl)-3,5-difluorophenyl)azetidine-3-carbonyl)-3-(methoxymethyl)piperazin-1-yl)cyclohexyl)-6-(2-hydroxypropan-2-yl)-2H-indazol-5-yl)pyrrolo[1,2-b]pyridazine-7-carboxamide]	96%	0.7 nM	14 nM	100%	12 nM	91%	–	–
COC[C@H]1CN([C@H]2CC[C@H](n3cc4cc(NC(=O)c5ccc6cc(C#N)cnn56)c(C(C)(C)O)cc4n3)CC2)CCN1CC1CN(c2cc(F)c([C@H]3CCC(=O)NC3=O)c(F)c2)C1 [Example 367, 3-cyano-N-(2-((1R,4r)-4-((R)-4-((1-(4-((R)-2,6-dioxopiperidin-3-yl)-3,5-difluorophenyl)azetidin-3-yl)methyl)-3-(methoxymethyl)piperazin-1-yl)cyclohexyl)-6-(2-hydroxypropan-2-yl)-2H-indazol-5-yl)pyrrolo[1,2-b]pyridazine-7-carboxamide]	99%	0.7 nM	12 nM	96%	11 nM	96%	97%	3.1 nM
C[C@@H]1CN(C2CCN(c3cc(F)c([C@H]4CCC(=O)NC4=O)c(F)c3)CC2)CCN1[C@H]1CC[C@H](n2cc3cc(NC(=O)c4ccc5cc(C#N)cnn45)c(C(C)(C)O)cc3n2)CC1 [Example 301, 3-cyano-N-(2-((1R,4r)-4-((R)-4-(1-(4-((R)-2,6-dioxopiperidin-3-yl)-3,5-difluorophenyl)piperidin-4-yl)-2-methylpiperazin-1-yl)cyclohexyl)-6-(2-hydroxypropan-2-yl)-2H-indazol-5-yl)pyrrolo[1,2-b]pyridazine-7-carboxamide]	100%	0.7 nM	3.2 nM	102%	42 nM	96%	–	–
